Reference: patent US20150105252A1, “SUBSTITUTED PYRAZOLES AS HERBICIDES” (E I DU PONT DE NEMOURS AND COMPANY, priority 2013, published 2015)

Tests used:
corn [1] = test: Test A postemergence; assay type: in vivo, Zea mays
Procedure, shortened: (§1)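 Pre- and postemergence greenhouse test; loam+sand; cpd in non-phytotox. solvent/surfactant; post at 1–2 leaf, 2–10 cm; visual score ~10 d, 0 = none, 100 = complete control.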

sedge, umbrella = test: Test B flood; assay type: in vivo, Cyperus difformis; conditions: 250 g ai/ha, visual rating on 0 to 100 scale (0 no effect, 100 complete control), 13 to 15 days
Procedure, shortened: (§2)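 Paddy-water application: seedlings at 2-leaf stage, flood depth 3 cm maintained for the test duration. Evaluation after 13–15 days in the greenhouse by eye relative to controls; 0–100 scale.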

foxtail, giant = test: Test C preemergence; assay type: in vivo, Setaria faberii; conditions: preemergence
Procedure, shortened: (§3)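 Greenhouse pot test: preemergence application onto freshly seeded loam/sand mix, postemergence application onto seedlings (1–4 leaves, 2–18 cm) in peat-vermiculite substrate. Responses scored visually 13 to 15 days later relative to controls, where 0 means no effect and 100 means complete control; a dash indicates no result.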

barnyardgrass [2] = test: Test A preemergence; assay type: in vivo, Echinochloa crus-galli; conditions: preemergence
Procedure, shortened: as §1

ragweed = test: Test C preemergence; assay type: in vivo, Ambrosia elation; conditions: preemergence
Procedure, shortened: as §3

barnyardgrass [3] = test: Test B flood; assay type: in vivo, Echinochloa crus-galli; conditions: 250 g ai/ha, visual rating on 0 to 100 scale (0 no effect, 100 complete control), 13 to 15 days
Procedure, shortened: as §2

pigweed = test: Test C preemergence; assay type: in vivo, Amaranthus retroflexus; conditions: preemergence
Procedure, shortened: as §3

velvetleaf [4] = test: Test C preemergence; assay type: in vivo, Abutilon theophrasti; conditions: preemergence
Procedure, shortened: as §3

corn [5] = test: Test C preemergence; assay type: in vivo, Zea mays; conditions: preemergence
Procedure, shortened: as §3

wheat [6] = test: Test A postemergence; assay type: in vivo, Triticum aestivum
Procedure, shortened: as §1

velvetleaf [7] = test: Test A postemergence; assay type: in vivo, Abutilon theophrasti
Procedure, shortened: as §1

morningglory = test: Test C preemergence; assay type: in vivo, Ipomoea coccinea; conditions: preemergence
Procedure, shortened: as §3

wheat [8] = test: Test A preemergence; assay type: in vivo, Triticum aestivum; conditions: preemergence
Procedure, shortened: as §1

ryegrass, Italian = test: Test C preemergence; assay type: in vivo, Lolium multiflorum; conditions: preemergence
Procedure, shortened: as §3

[9] = Postemergence, 500 g ai/ha, 0 to 100 scale (0 no effect, 100 complete control)
[10] = postemergence, 125 g ai/ha, about 10 days, visual rating on 0 to 100 scale (0 no effect, 100 complete control)
[11] = 31 g ai/ha, visual rating, scale 0 to 100 (0 no effect, 100 complete control), 13 to 15 days
[12] = 125 g ai/ha, 13 to 15 days, scale 0 to 100, 0 = no effect, 100 = complete control
[13] = 250 g ai/ha, scale 0 to 100, 0 is no effect, 100 is complete control
[14] = 500 g ai/ha, visual injury after approx. 10 days, 0 to 100 scale (0 no effect, 100 complete control)
[15] = 62 g ai/ha, scale 0 to 100 (0 no effect, 100 complete control), 13 to 15 days

CCCNC(=O)c1cc(CCCl)n(Cc2ccnc(C(F)(F)F)c2)n1 [Compound 145]
Corn plant response rating (corn [1]; [9]): 90
Corn plant response rating (corn [1]; [10]): 60
Plant response rating, Sedge, Umbrella (sedge, umbrella): 95
Foxtail, Giant plant response rating (foxtail, giant; [11]): 100
Plant response rating, Foxtail, Giant (foxtail, giant; [12]): 100
Foxtail, Giant plant response rating (foxtail, giant; [13]): 100
Barnyardgrass plant response rating (barnyardgrass [2]; 125 g ai/ha, visual injury, 0 to 100 scale, approx. 10 days): 90
Barnyardgrass plant response rating (barnyardgrass [2]; [14]): 100
Ragweed plant response rating (ragweed; [11]): 75
Ragweed plant response rating (ragweed; [15]): 95
Plant response rating, Ragweed (ragweed; [12]): 95
Ragweed plant response rating (ragweed; [13]): 98
Plant response rating, Barnyardgrass (barnyardgrass [3]): 45
Pigweed plant response rating (pigweed; [11]): 100
Pigweed plant response rating (pigweed; [15]): 100
Plant response rating, Pigweed (pigweed; [12]): 100
Pigweed plant response rating (pigweed; [13]): 100
Velvetleaf plant response rating (velvetleaf [4]; [11]): 90
Velvetleaf plant response rating (velvetleaf [4]; [15]): 100
Plant response rating, Velvetleaf (velvetleaf [4]; [12]): 100
Velvetleaf plant response rating (velvetleaf [4]; [13]): 100
Corn plant response rating (corn [5]; [11]): 10
Corn plant response rating (corn [5]; [15]): 50
Plant response rating, Corn (corn [5]; [12]): 80
Corn plant response rating (corn [5]; [13]): 90
Wheat plant response rating (wheat [6]; [9]): 80
Wheat plant response rating (wheat [6]; [10]): 50
Velvetleaf plant response rating (velvetleaf [7]; [9]): 100
Velvetleaf plant response rating (velvetleaf [7]; [10]): 70
Morningglory plant response rating (morningglory; [11]): 80
Morningglory plant response rating (morningglory; [15]): 100
Plant response rating, Morningglory (morningglory; [12]): 100
Morningglory plant response rating (morningglory; [13]): 100
Wheat plant response rating (0 to 100 scale) (wheat [8]; 125 g ai/ha, visual injury approx. 10 days after treatment): 40
Wheat plant response rating (wheat [8]; [14]): 100
Ryegrass, Italian plant response rating (ryegrass, Italian; [11]): 5
Ryegrass, Italian plant response rating (ryegrass, Italian; [15]): 45
Plant response rating, Ryegrass, Italian (ryegrass, Italian; [12]): 85
Ryegrass, Italian plant response rating (ryegrass, Italian; [13]): 90
